For assay [1], the system named is platelet aggregation induced by PAF. Conditions: known property of the reference compound; cited from earlier work.
Assay [2] shares this test system. Kind of assay: PAF-induced platelet aggregation inhibition (method of Born, aggregometer, platelet rich plasma). The format is cell-based. Conditions: Oryctolagus cuniculus, Platelet, 2 min, in vitro, rabbit PRP 50-55×10^4 /μl, 37° C., PAF C16 final 20 nM added 2 minutes after compound; read-out: IC50 (concentration of the test compounds which inhibit 50% platelet aggregation). Here is the method:
Mature male rabbits (NIBS-JW, RABITON Institute Inc., weighing 2.2-2.5 kg) were used. […] (The total volume of blood sample in each tube was adjusted to 8 ml.)
The blood sample in each tube was gently shaken and then centrifuged for 10 minutes at 200 g at 22° C. to give platelet rich plasma (PRP). The remaining blood was further centrifuged at 3,000 rpm (about 1,900 g) for 10 minutes at 22° C. to give platelet-poor plasma (PPP).
PRP was diluted with PPP to prepare a blood sample whose platelet number was 50-55×10^4 /μl. The sample was then subjected to a platelet aggregation test.
A volume of 230 μl of PRP, whose platelet number was adjusted to 50-55×10^4 /μl, was placed in a measuring cuvette and set in the aggregometer. PRP was warmed at 37° C. for 1 minute with stirring at 1,200 rpm, and then a solution of the test compound [dimethylsulfoxide solution (1μl) of the compound+saline (9μl)] was added thereto. Exactly 2 minutes later, 10 μl of platelet activating factor (PAF, C16) (final concentration: 20 nM) was added as a platelet aggregating agent, and the change in light transmission caused by platelet aggregation was recorded.
The light transmissions of PRP and PPP were taken as 0% and 100% aggregation, respectively, and the maximum light transmission after addition of an aggregating agent was made the maximum aggregation. The inhibition rate of the platelet aggregation was expressed as the percentage of the maximum aggregation by a test compound to that by a control (Vehicle added group).

For the compound `CCCCC[C@H](O)/C=C/[C@H]1[C@H](O)CC(=O)[C@@H]1CCCCCCC(=O)O` [PGE1, reference compound], in assay [1], the “inhibition of PAF-induced platelet aggregation (known)” value is listed as “potently inhibit the PAF-induced platelet aggregation”. Further, the IC50 in assay [2] is 259 nM.

These data come from patent US5138067A, “Lipid derivatives” (Shionogi & Co. Ltd., priority 1991, dated 1992).
